# Test results as given in US9504676B2, “Molecules inhibiting a metabolic pathway involving the Syk protein tyrosine kinase and method for identifying said molecules” (CENTRE NATIONAL DE LA RECHERCHE SCIENTIFIQUE, priority 2008, dated 2016).
# Test system: PLC-γ with LAT
# Assay: Association of PLC-γ with LAT (immunoprecipitation)
# Assay type: cell-based, rat
# Conditions: dose-dependent
# Method: Binding of Btk and Vav with SLP-76 is critical for regulating PLC-γ activity on the membrane, calcium mobilisation and granule exocytosis^27, 28.
# • 1) Chemical products and antibodies. A chemical bank of 3000 molecules (a varied subset) was acquired from ChemBridge, Inc. (San Diego, Calif.). Stocks of solutions of small molecules were prepared at a rate of 10 mM in DMSO (dimethylsulphoxide), except for C-13 (methyl 2-{5-[(3-benzyl-4-oxo-2-thioxo-1,3-thiazolidin-5-ylidene)methyl]-2-furyl}benzoate, ChemBridge ID No. 6197026) prepared in DMF (dimethylformamide). Unless specified otherwise, all the reagents were supplied by Sigma. Dinitrophenyl (DNP) hapten was acquired from Calbiochem. […] The binding of G4G11 with Syk was assessed by adding the 9E10 monoclonal antibody conjugated with HRP detecting the amino acid sequence EQKLISEEDLN of human c-myc protein located at the C-terminal end of the scFv fragment. To generate Syk mutants, targeted mutagenesis was used on GST:Syk 6-242 protein and the binding of G4G11 with the mutants was assessed in the presence of 5 μM of C-13. • 3) Cells, culture conditions and functional tests. […] The level of β-hexosaminidase released was measured 10 min later and the TNF-α titration was performed by means of a cytotoxicity test on L929 cells as described previously^10, 3 hours after stimulation. […]
smiles,measurement,value
"COC(=O)c1ccccc1-c1ccc(/C=C2/SC(=S)N(Cc3ccccc3)C2=O)o1 [Molecule C-13, methyl 2-{5-[(3-benzyl-4-oxo-2-thioxo-1,3-thiazolidin-5-ylidene)methyl]-2-furyl}benzoate]",association of PLC-γ with LAT,inhibited
